Experimental data from US20140329754A1, “COMPOSITIONS AND METHODS FOR TREATING MYELODYSPLASTIC SYNDROME” (Telik, Inc., priority 2010, published 2014).
Where a name gives a salt, the structure may show the parent alone.

How the values were obtained:
[1] = tested on: Patients with an International Prognostic System Score (IPSS) Low to Intermediate-1 Risk Myelodysplastic syndrome; test: Clinical study of ezatiostat hydrochloride tablets in IPSS low to intermediate-1 risk MDS patients: hematologic improvement (efficacy); assay type: in vivo, human; conditions: for Duration of HI-E Response, # Censored / Duration of HI-E Response, # Event: number of responders; for significant RBC transfusion reduction, patients: five of 11 patients; for HI-E Response Rate (95% Confidence Interval): hydrochloride
[2] = Same clinical study: non-hematologic adverse events (safety, all patients treated); assay type: in vivo, human
Protocol: Eighty-seven patients were randomized and treated at 23 investigational sites. After initial dose ranging in 14 patients, two dose levels were selected for further study. Subsequently, 37 patients were treated at 3 grams daily for two weeks followed by a one week rest period, and 36 patients were treated at 2 grams daily for three weeks followed by a one week rest period. The data on these 73 patients was pooled for this preliminary analysis.
The safety data is based on all patients treated.

[3] = tested on: MDS patients; conditions: patients administered lenalidomide; reported; cited from earlier work
[4] = 1 g b.i.d. 3 weeks on & 1 week off
[5] = 1.5 g b.i.d. 2 weeks on & 1 week off

Question: Which results are given for `CCOC(=O)[C@@H](N)CCC(=O)N[C@@H](CSCc1ccccc1)C(=O)N[C@@H](C(=O)OCC)c1ccccc1` [Telintra, ezatiostat hydrochloride]?
Answer: Duration of HI-E Response, # Censored, percent of responders [1, 4]: (66.7%); Duration of HI-E Response, # Event, percent of responders [1, 4]: (33.3%); Duration of HI-E Response, Median (95% CI) [1, 4]: 46.1 Weeks; Duration of HI-E Response, Min, Max [1, 4]: 2.4-46.1 Weeks; Time to HI-E Response, Median ([1]; 1 g b.i.d. 3 weeks on & 1 week off (N = 31)): 8.4 Weeks; Time to HI-E Response, Mean ([1]; 1 g b.i.d. 3 weeks on & 1 week off (N = 31), 6 responders): 8.9 Weeks; Duration of HI-E Response, # Censored [1, 4]: 4; Duration of HI-E Response, # Event [1, 4]: 2; Duration of HI-E Response, # Censored, percent of responders [1, 5]: (28.6%); Duration of HI-E Response, # Event, percent of responders [1, 5]: (71.4%); Duration of HI-E Response, Median (95% CI) [1, 5]: 18.4 Weeks; Duration of HI-E Response, Min, Max [1, 5]: 1.9-51.0 Weeks; Time to HI-E Response, Median ([1]; 1.5 g b.i.d. 2 weeks on & 1 week off (N = 29)): 8.1 Weeks; Time to HI-E Response, Mean ([1]; 1.5 g b.i.d. 2 weeks on & 1 week off (N = 29), 7 responders): 8.4 Weeks; Duration of HI-E Response, # Censored [1, 5]: 2; Duration of HI-E Response, # Event [1, 5]: 5; bilineage HI rate (HI-E and HI-N) ([1]; 2 of 19 patients, 95% CI 1.3-33.1): 11%; Hematologic Improvement-Neutrophil (HI-N) rate ([1]; 3 of 20 patients, 95% CI 3.2-37.9): 15%; RBC transfusion independence, patients ([1]; 4 of 38 RBC transfusion-dependent patients): 11%; clinically significant RBC transfusion reduction (reduction of 4U/8 weeks, IWG 2006), patients ([1]; 11 of 38 RBC transfusion-dependent patients): 29%; overall Hematologic Improvement-Erythroid (HI-E) rate ([1]; 13 of 60 evaluable patients, pooled 3 g/day and 2 g/day schedules, 95% CI 12.1-34.2): 22%; median hemoglobin level increase ([1]; in responders): 2.0 gram/dL; increase in response rate ([1]; lenalidomide pre-treated vs not pre-treated patients): over 100%; effect of prior Revlimid treatment on HI-E response ([1]; logistic regression analysis): enhance HI-E response; HI-E rate ([1]; no prior Revlimid, no prior DMTI, 6 of 23 patients, 95% CI 10.2%-48.4%): 26%; significant RBC transfusion reduction, patients ([1]; no prior Revlimid, no prior DMTI): 45%; HI-E rate ([1]; no prior Revlimid, prior DMTI, 0 of 17 patients, 95% CI 0%-19.5%): 0%; complete cytogenetic response (number of patients) ([1]; of the four patients with del 5q minus, one had failed prior Revlimid): two; duration of complete remission following discontinuation of therapy ([1]; one patient): more than 12 months; HI-E Response Rate (95% Confidence Interval) ([1]; patients with no prior Revlimid (lenalidomide) treatment, N=27, efficacy evaluable population): about 22%; HI-E Response Rate (95% Confidence Interval) ([1]; patients with prior Revlimid (lenalidomide) treatment, N=13, efficacy evaluable population): about 46%; median duration of HI-E response ([1]; pooled schedules): 46 weeks; range of duration of HI-E response ([1]; pooled schedules): 2-51 weeks; change in odds for a HI-E response ([1]; prior DMTI treatment, logistic regression, p=0.023): five-fold decrease; HI-E rate ([1]; prior Revlimid, no prior DMTI, 6 of 15 patients, 95% CI 16.3%-67.7%): 40%; significant RBC transfusion reduction, patients ([1]; prior Revlimid, no prior DMTI): 45%; transfusion independence, patients ([1]; prior Revlimid, no prior DMTI, three of 11 patients): 27%; cytogenetic complete responses (number of patients) ([1]; whole study): three; diarrhea, Grade 1 adverse event incidence ([2]; all patients treated): 25%; diarrhea, Grade 2 adverse event incidence ([2]; all patients treated): 7%; diarrhea, Grade 3 adverse event incidence ([2]; all patients treated): 3%; nausea, Grade 1 adverse event incidence ([2]; all patients treated): 45%; nausea, Grade 2 adverse event incidence ([2]; all patients treated): 16%; nausea, Grade 3 adverse event incidence ([2]; all patients treated): 1%; vomiting, Grade 1 adverse event incidence ([2]; all patients treated): 30%; vomiting, Grade 2 adverse event incidence ([2]; all patients treated): 12%; vomiting, Grade 3 adverse event incidence ([2]; all patients treated): 2%; incidence of GI AEs with prior DMTI treatment ([2]; patients with prior DMTI treatment): increased incidence of GI AEs

Question: For `Nc1cccc2c1CN(C1CCC(=O)NC1=O)C2=O` (stereo not drawn) [lenalidomide, 3-(4-amino-l-oxoisoindolin-2-yl)piperidine-2,6-dione], which “patients exhibiting clinically recognizable response” value [3] is on record?
Answer: about 50%
